Read-outs that look alike come from different tables or passages of the source.
Assays:
[1] = tested on: chloroquine-resistant (CQR) K1 strain of Plasmodium falciparum; assay: In vitro antiplasmodial assay (parasite lactate dehydrogenase), K1 strain; format: cell-based; conditions: for Resistance Index (RI): RI = IC50 (CQR)/IC50 (CQS); for activity against the CQR K1 strain relative to CQS (in words): resistance indices very close to unity
Experimental: (§1) Continuous in vitro cultures of asexual erythrocyte stages of P. falciparum were maintained using a modified method by Trager and Jensen. Quantitative assessment of the antiplasmodial activity in vitro was determined via the parasite lactate dehydrogenase assay using a modified method described by Makler. […] Samples were tested as a suspension if not completely dissolved. Stock solutions were stored at −20 °C. Further dilutions were prepared on the day of the experiment. […] The vitamin B12 complexes were tested at starting concentrations up to 50 μg/ mL, which was then serially diluted 2-fold in complete medium to give 10 concentrations. The ligands were tested at a starting concentration of 10 μg/mL, which was serially diluted 2-fold in complete medium to give 10 concentrations. […] The IC50 values were obtained using a non-linear dose-response curve fitting analysis via Graph Pad Prism v.5.0 software (GraphPad Software Inc., San Diego, CA, USA).

[2] = tested on: chloroquine-sensitive (CQS) NF54 strain of Plasmodium falciparum; assay: In vitro antiplasmodial assay (parasite lactate dehydrogenase), NF54 strain; format: cell-based; conditions: for activity in the sensitive strain (in words): NF54 strain
Experimental: as §1

blood stage = conditions: cited from earlier work
[3] = tested on: zebrafish (Danio rerio) embryos; assay: Zebrafish embryo toxicity (lethal, developmental, cardiotoxicity); conditions: 6 to 120 hpf; for toxicity in zebrafish embryos (survival/teratogenicity, in words): doses up to 150 µM
Experimental: The toxicity evaluation of B12-JR1, B12-JR1-CBC and vitamin B12 in the zebrafish model was carried out according to general rules of the OECD Guidelines for the Testing of Chemicals. […] Embryos of wild type zebrafish (Danio rerio, AB strain) were raised in a temperature- and light-controlled zebrafish facility with 28 °C and standard 14:10-h light-dark photoperiod, and regularly fed with commercially dry flake food (TetraMin™ flakes; Tetra Melle, Germany) twice a day and Artemia nauplii once daily. Zebrafish embryos were produced by the pair-wise mating, collected and distributed into 24-well plates containing 10 embryos per well and 1 mL embryos water (0.2 g L^−1 of Instant Ocean® Salt in distilled water), and raised at 28 °C. […] Experiments were performed three times using 30 embryos per concentration. Apical endpoints for the toxicity evaluation (Table S1) were recorded at 24, 48, 72, 96 and 120 hpf using an inverted microscope (CKX41; Olympus, Tokyo, Japan). […] Experiments were performed three times using 5 embryos per concentration. The hepatotoxicity was determined according to the change of liver area index compared to the control group, calculated as the ration between liver area and embryonic lateral area x 100%, as reported by Zhang et al.. In addition, the liver colour and retention of yolk were followed as the phenotypic signs of hepatotoxicity.

[4] = tested on: Tg(fabp10:EGFP) zebrafish embryos; assay: Zebrafish bio-distribution, transgenic Tg(fabp10:EGFP) embryos; format: in vivo, Danio rerio
Experimental: (§2) Because liver toxicity presents one of the most common drawbacks of the drugs approved for the human use, the drugs synthesized in this study were examined for the possible hepatotoxicity in vivo. The transgenic Tg(fabp:EGFP) zebrafish embryos exposed at 72 hpf (a stage when the liver is becoming vascularized and performing metabolic transformation of the absorbed compounds) to the synthesized drugs were evaluated for the liver colour (a possible necrosis sign), size, fluorescence and the liver area index ([…]). These are all parameters commonly used for hepatotoxicity evaluation and to follow the effect of applied therapies on the liver function.
To verify a preferential accumulation of B12-JR1-CBC in the liver, the compound was applied intravenously (parenteral use) to zebrafish embryos.

[5] = tested on: human lung fibroblasts (MRC5) cell line; assay: In vitro cytotoxicity, MTT assay, MRC5; format: cell-based; conditions: 48 h, 5 to 200 μM, read-out: IC50 against MRC5
Experimental: (§3) B12-JR1 was screened for in vitro cytotoxicity against the Chinese Hamster Ovarian (CHO) cell-line using the 3-(4,5-dimethylthiazol-2-yl)-2,5-diphenyltetrazolium bromide (MTT)-assay. The test sample was prepared to a 20 mg mL^−1 stock solution in 100% DMSO and tested in triplicate. Stock solutions were stored at −20 °C. Further dilutions were prepared in complete medium on the day of the experiment. Samples were tested as a suspension if not completely dissolved. Emetine was used as the reference drug in all experiments. The initial concentration of emetine was 100 µg mL^−1, which was diluted in complete medium with 10-fold dilutions to give 6 concentrations, the lowest being 0.001 µg mL^−1. The same dilution technique was applied to all test samples. The highest concentration of solvent to which the cells were exposed to have no measurable effect on the cell viability. […] Furthermore, the cytotoxicity in terms of the antiproliferative effect of B12-JR1, B12-JR2 and B12-JR3 were similarly evaluated by the MTT assay. The assay was carried out using human lung fibroblasts (MRC5) cell line after 48 h of cell incubation in the medium, containing compounds at concentrations ranging from 5 to 200 μM. […] The results were expressed as mean values ± standard deviation (SD) and analysed using Student’s t-test at a threshold level of p = 0.05. […]

[6] = tested on: Chinese Hamster Ovarian (CHO) cell-line; format: cell-based
Experimental: as §3

[7] = tested on: liver of Tg(fabp10:EGFP) zebrafish embryos; assay: Zebrafish hepatotoxicity, transgenic Tg(fabp10:EGFP) embryos; format: in vivo, Danio rerio; conditions: 150 µM
Experimental: as §2
Dead embryos were counted and discarded every 24 h.

[8] = CQR K1 strain, asexual erythrocyte stages, triplicate, read-out: K1 IC50 ± SD
[9] = CQS NF54 strain, asexual erythrocyte stages, triplicate, na = not active at the tested concentration, read-out: NF54 IC50 ± SD
[10] = Plasmodium falciparum, CQR K1 strain, asexual erythrocyte stages, triplicate, read-out: K1 IC50 ± SD
[11] = Plasmodium falciparum, CQS NF54 strain, asexual erythrocyte stages, triplicate, na = not active at the tested concentration, read-out: NF54 IC50 ± SD

With “cobalamin-7-chloro-N-(2-(4-(4-ethynyl-3-fluorophenyl)-1H-1,2,3-triazol-1-yl)ethyl)quinolin-4-amine [Compound B12-JR2]” the IC50 [1, 8] was 6.02 ± 0.71 µM, the “Resistance Index (RI)” value [1] was 1.3 and the “activity against the CQR K1 strain relative to CQS (in words)” value [1] was “equally active”. It also gave an IC50 [2, 9] of 4.73 ± 0.32 µM.

In the case of `C/C1=C2/[N-][C@H]([C@H](CC(N)=O)[C@@]2(C)CCC(=O)NC[C@@H](C)OP(=O)([O-])O[C@H]2[C@@H](O)[C@@H](n3cnc4cc(C)c(C)cc43)O[C@@H]2CO)[C@]2(C)N=C(/C(C)=C3N=C(/C=C4N=C1[C@@H](CCC(N)=O)C\4(C)C)[C@@H](CCC(N)=O)[C@]\3(C)CC(N)=O)[C@@H](CCC(N)=O)[C@]2(C)CC(N)=O.[CH2-][C@H]1O[C@@H](n2cnc3c(N)ncnc32)[C@H](O)[C@@H]1O.[Co]` [Ado-Cbl, adenosylcobalamin], the “rank of antimalarial activity among naturally occurring Cbls (in words)” value (blood stage) is given as “most active”.

For “Cobalamin-2-(4-(4-ethynylphenyl)-1H-1,2,3-triazol-1-yl)-1-(2-(4-fluorophenyl)-3-((4-fluorophenyl)amino)-8,8-dimethyl-5,6-dihydroimidazo[1,2-a]pyrazin-7(8H)-yl)ethan-1-one [Compound B12-SN1]”, the “activity in the sensitive strain (in words)” value [2] was “inactive”.

In the case of “cyanocobalamin [vitamin B12, reference compound]”, the “toxicity in zebrafish embryos (survival/teratogenicity, in words)” value [3] is reported as “neither toxic”.

`CCN(CC)CCCC(C)Nc1ccnc2cc(Cl)ccc12` (centres unmarked) [CQ, chloroquine, reference compound] gave an IC50 ([1]; Plasmodium falciparum, K1, Erythrocyte, read-out: K1 IC50 ± SD) of 0.4 ± 0.04 µM and an IC50 ([2]; Plasmodium falciparum, NF54, Erythrocyte, read-out: NF54 IC50 ± SD) of 0.013 ± 0.001 µM.

With “cobalamin-7-chloro-N-(2-(4-(4-ethynyl-2-fluorophenyl)-1H-1,2,3-triazol-1-yl)ethyl)quinolin-4-amine [Compound B12-JR3]” the IC50 [1, 8] was greater than 15 µM, the “Resistance Index (RI)” value [1] was greater than 1.6 and the IC50 [2, 9] was 9.68 ± 0.73 µM.

In the case of `C#Cc1ccc(-c2cn(CCNc3ccnc4cc(Cl)ccc34)nn2)cc1F` [JR2, 7-chloro-N-(2-(4-(4-ethynyl-3-fluorophenyl)-1H-1,2,3-triazol-1-yl)ethyl)quinolin-4-amine], the IC50 [1, 10] is reported as 0.16 ± 0.01 µM, the “Resistance Index (RI)” value [1] is reported as 1.1 and the “activity in the sensitive strain (in words)” value [2] is reported as “good activity”. The IC50 [2, 11] was 0.15 ± 0.01 µM.

With `C#Cc1ccc(-c2cn(CCNc3ccnc4cc(Cl)ccc34)nn2)c(F)c1` [JR3, 7-chloro-N-(2-(4-(4-ethynyl-2-fluorophenyl)-1H-1,2,3-triazol-1-yl)ethyl)quinolin-4-amine] the IC50 [1, 10] was 0.21 ± 0.02 µM, the “Resistance Index (RI)” value [1] was 1.1 and the “activity in the sensitive strain (in words)” value [2] was “good activity”. It also gave an IC50 [2, 11] of 0.19 ± 0.02 µM.

For “cobalamin-7-chloro-N-(2-(4-(4-ethynylphenyl)-1H-1,2,3-triazol-1-yl)ethyl)quinolin-4-amine [Compound B12-JR1]”, the “toxicity in zebrafish embryos (survival/teratogenicity, in words)” value [3] was “neither toxic”, the LC50 ([3]; zebrafish model) was greater than 150 µM and the “organ distribution when applied in the embryo water (in words)” value ([4]; 150 µM, 106–120 hpf) was “preferential accumulation of both compounds in the liver”. For the same compound, the “effect on liver development (in words)” value ([4]; after the exposure period, 150 µM of B12-JR1 and 20 µM B12-JR1-CBC) was “did not affect the liver development”, the “organ distribution after microinjection into the blood circulation (in words)” value ([4]; parenteral, microinjected at 106 hpf, analysed at 120 hpf) was “solely detected in the liver” and the IC50 [1, 8] was 9.18 ± 0.85 µM. For the same compound, the “Resistance Index (RI)” value [1] was 1.5, the IC50 ([1]; Table 2, in vitro data obtained in the cell-based assay, read-out: IC50 K1) was 9.2 µM and the “activity against the CQR K1 strain relative to CQS (in words)” value [1] was “equally active”. The IC50 [5] was 70 µM, the “toxicity against CHO cells (in words)” value [6] was “not to be toxic” and the IC50 [2, 9] was 6.27 ± 0.37 µM. The IC50 ([2]; Table 2, in vitro data obtained in the cell-based assay, read-out: IC50 NF54) was 6.3 µM, the “liver area index (in words)” value ([7]; exposure 72–120 hpf) was “did not affect the liver area index” and the “liver size and fluorescence (in words)” value ([7]; exposure 72–120 hpf) was “no changes in the liver size and fluorescence”. The “hepatotoxicity (in words)” value ([7]; dose 16–24 higher than the one active against Plasmodium strains) was “not hepatotoxic”.

With `C#Cc1ccc(-c2cn(CCNc3ccnc4cc(Cl)ccc34)nn2)cc1` [JR1, 7-chloro-N-(2-(4-(4-ethynylphenyl)-1H-1,2,3-triazol-1-yl)ethyl)quinolin-4-amine] the IC50 [1, 10] was 0.18 ± 0.02 µM, the “Resistance Index (RI)” value [1] was 1.3 and the “activity in the sensitive strain (in words)” value [2] was “good activity”. For the same compound, the IC50 [2, 11] was 0.14 ± 0.01 µM.

In the case of `C#Cc1ccc(-c2cn(CC(=O)N3CCn4c(nc(-c5ccc(F)cc5)c4Nc4ccc(F)cc4)C3(C)C)nn2)cc1` [SN1, 2-(4-(4-ethynylphenyl)-1H-1,2,3-triazol-1-yl)-1-(2-(4-fluorophenyl)-3-((4-fluorophenyl)amino)-8,8-dimethyl-5,6-dihydroimidazo[1,2-a]pyrazin-7(8H)-yl)ethan-1-one], the “activity in the sensitive strain (in words)” value [2] is reported as “inactive”.

— paper PMC6630517 (Molecules, 2019)
